Where only a bound is given, the exact number is not on record here.

Series [1] has as its target T1, Ito (Homo sapiens, UniProt Q9UK17).
T1 construct: in isolated atrial cardiomyocytes; endogenous in cells; host or cells: isolated human atrial cardiomyocytes
The series can be described thus: Ion channel profiling in isolated atrial cardiomyocytes. It is filed as cell-based. Conditions: Human/atria isolated atrial cardiomyocytes.

The test system of series [2] is Ito. Described as above. Type of series: cell-based. Conditions: Rabbit/atria isolated atrial cardiomyocytes.
The next series has as its system rabbit ventricular wedge. Conditions: sulcardine and salts; cited from earlier work.
The target in a further series is T2, Slow Na (Homo sapiens, UniProt Q14524).
T2 construct: in isolated atrial cardiomyocytes; endogenous in cells; host or cells: isolated human atrial cardiomyocytes
T2 sequence (Q14524 whole entry): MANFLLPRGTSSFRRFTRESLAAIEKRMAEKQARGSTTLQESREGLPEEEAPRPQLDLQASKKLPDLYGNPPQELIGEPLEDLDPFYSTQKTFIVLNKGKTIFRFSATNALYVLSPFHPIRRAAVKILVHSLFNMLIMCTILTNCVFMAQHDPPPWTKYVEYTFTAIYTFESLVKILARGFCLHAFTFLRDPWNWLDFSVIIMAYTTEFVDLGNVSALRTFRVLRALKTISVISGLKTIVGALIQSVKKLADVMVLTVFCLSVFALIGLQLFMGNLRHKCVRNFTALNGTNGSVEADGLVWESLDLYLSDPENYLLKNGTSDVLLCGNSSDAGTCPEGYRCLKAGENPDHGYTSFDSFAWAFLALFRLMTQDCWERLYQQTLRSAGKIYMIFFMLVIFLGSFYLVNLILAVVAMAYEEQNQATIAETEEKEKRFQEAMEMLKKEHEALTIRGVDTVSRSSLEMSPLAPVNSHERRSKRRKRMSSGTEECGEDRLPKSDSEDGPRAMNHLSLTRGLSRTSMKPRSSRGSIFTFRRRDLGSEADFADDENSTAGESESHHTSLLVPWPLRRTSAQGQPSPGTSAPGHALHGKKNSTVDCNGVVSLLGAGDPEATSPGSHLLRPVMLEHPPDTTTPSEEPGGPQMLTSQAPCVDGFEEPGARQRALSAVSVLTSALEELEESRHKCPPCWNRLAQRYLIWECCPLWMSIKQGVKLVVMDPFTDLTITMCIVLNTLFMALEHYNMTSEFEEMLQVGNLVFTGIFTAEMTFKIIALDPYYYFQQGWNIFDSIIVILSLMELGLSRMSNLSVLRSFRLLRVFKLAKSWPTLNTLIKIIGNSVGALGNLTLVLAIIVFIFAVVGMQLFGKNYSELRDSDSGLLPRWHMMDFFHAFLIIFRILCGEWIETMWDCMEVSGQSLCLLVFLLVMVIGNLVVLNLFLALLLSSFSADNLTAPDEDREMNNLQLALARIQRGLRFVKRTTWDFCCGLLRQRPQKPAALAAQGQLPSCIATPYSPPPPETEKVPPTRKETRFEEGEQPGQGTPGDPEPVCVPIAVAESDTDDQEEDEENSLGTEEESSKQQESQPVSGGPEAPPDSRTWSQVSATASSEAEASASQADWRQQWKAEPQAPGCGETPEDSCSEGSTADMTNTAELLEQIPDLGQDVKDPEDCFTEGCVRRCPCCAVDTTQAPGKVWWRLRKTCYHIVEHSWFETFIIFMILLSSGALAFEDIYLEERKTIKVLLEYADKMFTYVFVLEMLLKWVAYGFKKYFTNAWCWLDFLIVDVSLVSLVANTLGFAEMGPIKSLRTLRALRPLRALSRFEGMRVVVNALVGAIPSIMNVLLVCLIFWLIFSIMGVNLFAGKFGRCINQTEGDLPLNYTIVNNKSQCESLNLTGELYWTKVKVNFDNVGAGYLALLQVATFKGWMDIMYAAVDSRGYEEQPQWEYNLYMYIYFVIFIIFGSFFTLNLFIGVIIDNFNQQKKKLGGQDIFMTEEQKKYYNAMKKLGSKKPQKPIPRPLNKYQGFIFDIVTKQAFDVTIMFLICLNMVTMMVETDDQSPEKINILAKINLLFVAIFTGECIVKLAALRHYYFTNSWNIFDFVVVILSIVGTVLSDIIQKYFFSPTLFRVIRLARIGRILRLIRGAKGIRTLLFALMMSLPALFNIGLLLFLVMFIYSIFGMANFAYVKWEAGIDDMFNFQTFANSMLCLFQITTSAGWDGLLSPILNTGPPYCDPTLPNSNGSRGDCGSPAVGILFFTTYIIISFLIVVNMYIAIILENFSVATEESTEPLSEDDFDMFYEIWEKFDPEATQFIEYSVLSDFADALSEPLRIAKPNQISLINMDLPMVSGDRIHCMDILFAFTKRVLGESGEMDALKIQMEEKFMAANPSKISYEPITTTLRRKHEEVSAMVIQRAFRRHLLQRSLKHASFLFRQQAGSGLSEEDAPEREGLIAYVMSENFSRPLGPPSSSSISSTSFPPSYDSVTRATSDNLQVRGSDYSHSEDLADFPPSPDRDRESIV
The series can be described thus: Ion channel profiling in isolated atrial cardiomyocytes. Type of series: cell-based. Conditions: Human/atria isolated atrial cardiomyocytes.

Series [3] has as its system ion channels in human atrial cardiomyocytes. Conditions: sulcardine and its salts, in vitro, reported; cited from earlier work.
Another series has as its target T3, IKur (Homo sapiens, UniProt P22460).
T3 construct: in isolated atrial cardiomyocytes; endogenous in cells; host or cells: isolated human atrial cardiomyocytes
The series can be described thus: Ion channel profiling in isolated atrial cardiomyocytes. Type of series: cell-based. Conditions: Human/atria isolated atrial cardiomyocytes.

Series [4] deals with T4, IKr (Oryctolagus cuniculus, UniProt Q8WNY2).
T4 construct: in isolated atrial cardiomyocytes; endogenous in cells; host or cells: isolated rabbit atrial cardiomyocytes
T4 sequence (Q8WNY2 whole entry): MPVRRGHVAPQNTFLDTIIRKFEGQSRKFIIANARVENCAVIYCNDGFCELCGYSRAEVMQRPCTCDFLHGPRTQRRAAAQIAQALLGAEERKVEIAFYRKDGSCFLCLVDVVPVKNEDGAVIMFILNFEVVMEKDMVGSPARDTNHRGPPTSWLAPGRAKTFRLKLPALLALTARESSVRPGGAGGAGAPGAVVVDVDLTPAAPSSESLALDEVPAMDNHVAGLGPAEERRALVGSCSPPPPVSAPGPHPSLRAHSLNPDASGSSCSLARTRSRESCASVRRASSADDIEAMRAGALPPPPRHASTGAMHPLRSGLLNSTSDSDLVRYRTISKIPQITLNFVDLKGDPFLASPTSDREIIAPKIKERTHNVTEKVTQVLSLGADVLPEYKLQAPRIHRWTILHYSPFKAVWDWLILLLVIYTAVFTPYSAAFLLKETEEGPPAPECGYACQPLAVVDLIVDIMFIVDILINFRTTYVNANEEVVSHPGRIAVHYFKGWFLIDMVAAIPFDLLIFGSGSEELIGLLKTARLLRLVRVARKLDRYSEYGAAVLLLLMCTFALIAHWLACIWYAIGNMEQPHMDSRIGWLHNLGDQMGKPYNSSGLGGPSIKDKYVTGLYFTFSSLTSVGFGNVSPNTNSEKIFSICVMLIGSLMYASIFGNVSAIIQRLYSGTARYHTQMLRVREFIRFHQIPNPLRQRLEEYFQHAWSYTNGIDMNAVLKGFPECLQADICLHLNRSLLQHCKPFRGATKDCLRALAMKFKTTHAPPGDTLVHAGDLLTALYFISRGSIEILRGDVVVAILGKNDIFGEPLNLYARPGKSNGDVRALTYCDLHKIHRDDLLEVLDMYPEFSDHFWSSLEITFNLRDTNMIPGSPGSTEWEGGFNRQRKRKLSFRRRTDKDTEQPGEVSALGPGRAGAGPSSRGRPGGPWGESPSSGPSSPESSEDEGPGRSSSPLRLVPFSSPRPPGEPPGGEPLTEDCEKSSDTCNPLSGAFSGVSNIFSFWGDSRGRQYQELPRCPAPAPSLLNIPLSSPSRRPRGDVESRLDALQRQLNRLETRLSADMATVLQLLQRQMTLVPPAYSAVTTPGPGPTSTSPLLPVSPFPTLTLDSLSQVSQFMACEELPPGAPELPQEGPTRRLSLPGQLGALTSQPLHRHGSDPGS
The description is as above. Type of series: cell-based. Conditions: Rabbit/atria isolated atrial cardiomyocytes.

The subject of the next series is post-MI conscious canine. Conditions: sulcardine and salts; cited from earlier work.
In series [5] the target is T5, Fast Na (Homo sapiens, UniProt Q14524).
T5 construct: in isolated atrial cardiomyocytes; endogenous in cells; host or cells: isolated human atrial cardiomyocytes
Put plainly: Ion channel profiling in isolated atrial cardiomyocytes. Type of series: cell-based. Conditions: Human/atria isolated atrial cardiomyocytes.

In another series the target is T6, L-Ca (Oryctolagus cuniculus, UniProt P15381).
T6 construct: in isolated atrial cardiomyocytes; endogenous in cells; host or cells: isolated rabbit atrial cardiomyocytes
Described as above. It is filed as cell-based. Conditions: Rabbit/atria isolated atrial cardiomyocytes.

For series [6], the target named is T7, IKr (Homo sapiens, UniProt Q12809).
T7 construct: in isolated atrial cardiomyocytes; endogenous in cells; host or cells: isolated human atrial cardiomyocytes
T7 sequence (Q12809 whole entry): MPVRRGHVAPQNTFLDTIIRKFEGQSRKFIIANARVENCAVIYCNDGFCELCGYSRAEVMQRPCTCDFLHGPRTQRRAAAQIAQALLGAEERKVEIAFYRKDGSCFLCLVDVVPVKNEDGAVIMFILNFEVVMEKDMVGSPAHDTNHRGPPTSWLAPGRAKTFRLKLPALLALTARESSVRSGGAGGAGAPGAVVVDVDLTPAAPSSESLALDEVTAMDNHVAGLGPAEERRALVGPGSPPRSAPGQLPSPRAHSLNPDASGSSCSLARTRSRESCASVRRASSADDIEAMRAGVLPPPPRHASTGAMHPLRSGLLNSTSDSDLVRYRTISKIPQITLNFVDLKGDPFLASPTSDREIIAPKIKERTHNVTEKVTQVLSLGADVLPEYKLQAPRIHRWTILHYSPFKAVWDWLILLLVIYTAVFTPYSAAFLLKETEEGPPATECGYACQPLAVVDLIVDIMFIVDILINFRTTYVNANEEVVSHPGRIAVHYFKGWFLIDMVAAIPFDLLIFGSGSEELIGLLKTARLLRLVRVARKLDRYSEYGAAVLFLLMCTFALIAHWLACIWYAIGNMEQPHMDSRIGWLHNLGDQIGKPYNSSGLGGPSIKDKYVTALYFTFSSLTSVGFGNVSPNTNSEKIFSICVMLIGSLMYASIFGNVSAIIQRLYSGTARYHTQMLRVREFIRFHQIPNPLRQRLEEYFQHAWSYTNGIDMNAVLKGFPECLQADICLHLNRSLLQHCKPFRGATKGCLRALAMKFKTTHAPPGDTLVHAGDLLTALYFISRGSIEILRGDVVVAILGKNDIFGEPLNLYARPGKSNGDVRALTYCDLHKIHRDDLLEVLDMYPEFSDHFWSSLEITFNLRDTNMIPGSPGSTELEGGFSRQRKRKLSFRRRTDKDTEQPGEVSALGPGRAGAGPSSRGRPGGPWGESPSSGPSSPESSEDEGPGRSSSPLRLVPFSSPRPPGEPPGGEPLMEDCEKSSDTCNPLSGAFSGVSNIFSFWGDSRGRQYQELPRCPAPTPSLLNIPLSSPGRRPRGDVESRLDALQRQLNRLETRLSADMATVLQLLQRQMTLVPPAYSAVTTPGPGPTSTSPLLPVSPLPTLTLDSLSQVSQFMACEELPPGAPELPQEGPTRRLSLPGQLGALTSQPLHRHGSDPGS
The description is as above. It is filed as cell-based. Conditions: Human/atria isolated atrial cardiomyocytes.

The subject of series [7] is Fast Na. Described as above. Conditions: Rabbit/atria isolated atrial cardiomyocytes. Type of series: cell-based.
The subject of another series is post-MI canine. Conditions: sulcardine and salts; cited from earlier work.
The next series deals with IKach. Put plainly: Ion channel profiling in isolated atrial cardiomyocytes. Type of series: cell-based. Conditions: Rabbit/atria isolated atrial cardiomyocytes.

T3 sequence (P22460 whole entry): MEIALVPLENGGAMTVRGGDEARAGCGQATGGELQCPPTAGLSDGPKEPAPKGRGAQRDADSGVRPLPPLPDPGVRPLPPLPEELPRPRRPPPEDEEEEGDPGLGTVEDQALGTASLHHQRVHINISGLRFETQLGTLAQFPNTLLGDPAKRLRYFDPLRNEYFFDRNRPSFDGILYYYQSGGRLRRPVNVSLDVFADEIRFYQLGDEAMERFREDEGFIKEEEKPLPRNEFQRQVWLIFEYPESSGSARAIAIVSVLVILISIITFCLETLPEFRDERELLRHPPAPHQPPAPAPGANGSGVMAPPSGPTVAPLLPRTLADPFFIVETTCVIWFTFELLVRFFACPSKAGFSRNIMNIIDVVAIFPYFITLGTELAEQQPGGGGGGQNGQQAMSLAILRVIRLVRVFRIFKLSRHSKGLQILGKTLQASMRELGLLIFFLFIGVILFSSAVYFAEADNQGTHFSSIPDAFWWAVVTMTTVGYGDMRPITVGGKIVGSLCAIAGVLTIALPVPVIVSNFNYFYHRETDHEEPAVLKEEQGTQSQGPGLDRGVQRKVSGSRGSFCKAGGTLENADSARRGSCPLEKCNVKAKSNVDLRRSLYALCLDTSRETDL

On to “4-methoxy-N-(3,5-bis-(1-pyrrolidinyl)-4-hydroxy benzyl)benzene sulfonamide [sulcardine]”, for which the IC50 against Ito [1] is 100 µM; in the series on Ito [2] it was 26 µM; against Slow Na, 45 µM; in [3], 26 to 100 µM; against IKur it was greater than 190 µM; against IKr [4] it was 61 µM. The IC50 at Fast Na [5] amounted to 26 µM; on L-Ca, 54 µM; on IKr [6], 40 µM; with Fast Na [7] it was 34 µM; with IKach, 130 µM. Further, the pro-arrhythmic activity result with rabbit ventricular wedge and with post-MI conscious canine was “lack significant pro-arrhythmic activity” throughout. Also, in the series with post-MI canine, the defibrillation threshold result was “do not increase defibrillation threshold”.

As usually defined, the IC50 is the concentration needed to halve the response being measured.

(Values after patent US8541464B2, “Treatment of atrial fibrillation” (HUYA Biosciences International LLC, priority 2009, dated 2013).)
